Experimental data published in patent US20050244964A1, “Production of neural progenitor cells” (priority 2002, published 2005).

Columns and labels:
mouse ES cells = assay: Neural versus non-neural differentiation and neural complexity scoring of mouse ES cell embryoid bodies; type: cell-based; details: RA doses 1 μM and 10 nM compared with 100 nM
Text: FIG. 2A is a graph that illustrates the level of neural differentiation when retinoic acid and MEDII are and are not present. The first column (ICb−RA) used a standard media (ICb, see Example 2), where a high percentage of non-neural tissue (scored as beating muscle) was observed. […] The third column used a 50% MEDII conditioned media but without RA supplementation. […] The fourth column used 50% MEDII supplemented with RA.
FIG. 2B is similar to FIG. 2A except the level of neural complexity was scored. A score of 1 to 3 was assigned depending upon the neuronal complexity (number of neurites and networking emanating from the body), with a score of 3 for the most complex.
Single cell suspensions of mouse ES cells were cultured for 4 days in standard culture media (ICb) or in the presence of 50% MEDII. The standard conditioning media (ICb) contains 90 ml DMEM, 10 ml of foetal calf serum, 1 ml glutamine (0.1M stock at 1/100 dilution) and 100 ul of β-Mercaptoethanol (0.1M stock at 1/1000 dilution). The culture process involved media changes on days 2 and 4 involving a ½ splitting of the cell aggregates. […] This media change occurred every day for three days (i.e to EBM^7). By the end of this period the morphological differences in treatment when supplemented with combinations of 50% MEDII and/or RA were apparent. […]

Human ES cells = assay: TH+ cell immunostaining of adhered human ES cell embryoid bodies; type: cell-based; details: for formation of TH+ cells (in words): human ES embryoid bodies adhered and differentiated
Method: Collagenase/trypsin passaged ES cells were prepared as a single cell suspension and seeded at a density of 150 cells/μl in low attachment TC dishes (Costar). Cell aggregates were split 1:3 at day 2 and possibly at day 3 if required. Cultures were feed daily for 9 days and on day 9 bodies were transferred to poly-L-ornithine/laminin coated 24 well trays in 0.5 ml of medium if adhesive culture was to be conducted. Another 0.5 ml media was added to each well after 24 hours incubation. Adhered cultures or suspension cultures were fed daily for a further 8 days.
Embryoid bodies or neurospheres/aggregates are allowed to settle onto a coated surface to allow differentiation to occur (4 to 8 days). The coating can be on a plastic surface in either a tray or a coated coverslip.
The ability of basic media with supplements (DMEM +N2 or ITSS) to promote neural differentiation of hES cells was compared with medium that included F12: (DMEM:F12 (1:1) +N2 or ITSS)
Trypsinised Human ES cells were seeded at approximately 10 to 20 cells/μl of media into 10 ml of neurosphere media (DMEM:F12, 10 μg/ml heparin (SIGMA), 1/50 B27(GIBCO), 1/100 pen/strep, 1/100 ITSS) in a T75 culture flask. 10 ng/ml FGF2 was optionally added but the culture medium was preferably mitogen-free (no FGF2). Cultures were maintained in the media for 9 days after which the embryoid bodies were optionally transferred to poly-L-ornithine/laminin plates and cultured in the same media for a further 6 days. The embryoid bodies so formed (EB^15) whether from adherent or suspension culture, were then triturated to near single cell form and used for either transplantation or for the formation of neurospheres/cell reaggregates.
Example 5 was repeated utilising human ES cells and a minimal media consisting of DMEM and 100 μM L-proline as outlined in the schematic of FIG. 12. Results were similar to those described in Example 5.

**Q.** With `CC1=C(/C=C/C(C)=C/C=C/C(C)=C/C(=O)O)C(C)(C)CCC1` [RA, (all-E)-3,7-dimethyl-9-(2,6,6-trimethyl-1-cyclohexen-1-yl)-2,4,6,8-nonatetraenoic acid] as the molecule, how does the “uniformity of RA effect on embryoid bodies” value (mouse ES cells) read?
**A.** not as uniform as seen with 100 nM RA

**Q.** For `O=C(O)[C@@H]1CCCN1` [L-proline], which “formation of TH+ cells (in words)” value (Human ES cells) is on record?
**A.** high numbers of TH+cells

**Q.** And the “proportion of TH+ cells” value (Human ES cells; human ES embryoid bodies, 9 days suspension then adherent culture on laminin, with N2 or ITSS, L-proline 100 μM in DMEM)?
**A.** ~50%

**Q.** How did the “formation of TH+ cells (in words)” value (Human ES cells) turn out when FGF2: fibroblast growth factor was run?
**A.** little impact on the generation of TH+ cells
